Laboratory results reported in PMC7075522 (ACS infectious diseases, 2016).

Experiments:
[1] = tested on: sera of 24 SARS-positive patients; type: binding, human
[2] = tested on: DENV in BHK-21 and NIH3T3 cells; conditions: cited from earlier work

Substance	Immunoreactivity with sera [1]	ADE of DENV [2]
LYQDVN [S597–602]	immunoreactive with the tested sera of 24 SARS-positive patients	
CPFLKQNEPEDIDCW		blocked this ADE in a dose-dependent manner
